Measured values: PubChem BioAssay AID248 (DTP/NCI, 2004)
Several values for one entry are separate records, joined by “and”; a condition that tells them apart may be missing. Identical values can stand only once. Inconclusive results and toxic doses are left out.

System: L1210 leukemia ip in BDF1 mice, survival T/C
Assay: NCI In Vivo Anticancer Drug Screen. Data for tumor model L1210 Leukemia (intraperitoneal) in B6D2F1 (BDF1) mice
Conditions: endpoint: mean survival time, higher = longer survival
In short: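 Read-out is survival time, reported as the treated-group measurement over the vehicle-control measurement.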

[1] = dose: 100.0 mg/kg/injection, schedule: Q01DX001 (ip), vehicle: carboxymethylcellulose (CMC)
[2] = dose: 200.0 mg/kg/injection, schedule: Q01DX001 (ip), vehicle: carboxymethylcellulose (CMC)
[3] = dose: 100.0 mg/kg/injection, schedule: Q01DX009 (ip), vehicle: saline with Tween-80
[4] = dose: 200.0 mg/kg/injection, schedule: Q01DX009 (ip), vehicle: saline with Tween-80
[5] = dose: 400.0 mg/kg/injection, schedule: Q01DX009 (ip), vehicle: saline with Tween-80
[6] = dose: 100.0 mg/kg/injection, schedule: Q01DX001 (ip), vehicle: saline
[7] = dose: 100.0 mg/kg/injection, schedule: Q04DX003 (ip), vehicle: saline
[8] = dose: 200.0 mg/kg/injection, schedule: Q01DX001 (ip), vehicle: saline
[9] = dose: 400.0 mg/kg/injection, schedule: Q01DX001 (ip), vehicle: saline
[10] = dose: 100.0 mg/kg/injection, schedule: Q01DX009 (ip), vehicle: Klucel (hydroxypropylcellulose) (HPC)
[11] = dose: 200.0 mg/kg/injection, schedule: Q01DX009 (ip), vehicle: Klucel (hydroxypropylcellulose) (HPC)
[12] = dose: 100.0 mg/kg/injection, schedule: Q04DX003 (ip), vehicle: saline with Tween-80
[13] = dose: 200.0 mg/kg/injection, schedule: Q04DX003 (ip), vehicle: saline with Tween-80
[14] = dose: 400.0 mg/kg/injection, schedule: Q04DX003 (ip), vehicle: saline with Tween-80

## CO[C@@]12[C@H](COC(N)=O)C3=C(C(=O)C(C)=C(NCCO)C3=O)N1C[C@@H]1N[C@@H]12
dose: 2.9 mg/kg/injection, schedule: Q01DX001 (ip), vehicle: acetone
  T/C: 113 % of control
dose: 4.3 mg/kg/injection, schedule: Q01DX001 (ip), vehicle: acetone
  T/C: 117 % of control
dose: 6.6 mg/kg/injection, schedule: Q01DX001 (ip), vehicle: saline
  T/C: 113 % of control
dose: 7.5 mg/kg/injection, schedule: Q01DX009 (ip), vehicle: saline
  T/C: 91 % of control
dose: 9.9 mg/kg/injection, schedule: Q01DX001 (ip), vehicle: saline
  T/C: 111 % of control
dose: 22.0 mg/kg/injection, schedule: Q01DX001 (ip), vehicle: saline
  T/C: 113 % of control
dose: 33.0 mg/kg/injection, schedule: Q01DX001 (ip), vehicle: acetone
  T/C: 159 % of control

## O=C(O)c1cc(Br)sc1Br
[1]
  T/C: 101 % of control
[2]
  T/C: 95 % of control
dose: 400.0 mg/kg/injection, schedule: Q01DX001 (ip), vehicle: carboxymethylcellulose (CMC)
  T/C: 95 % of control

## COc1ccc(OC(=O)Nc2ccccc2C(F)(F)F)cc1
[3]
  T/C: 98 % of control
[4]
  T/C: 107 % of control
[5]
  T/C: 102 % of control

## COC(=O)C1CCCCC1NC(C)=O (stereo not given)
[6]
  T/C: 102 % of control
[7]
  T/C: 114 % of control
[8]
  T/C: 110 % of control
dose: 200.0 mg/kg/injection, schedule: Q04DX003 (ip), vehicle: saline
  T/C: 100 % of control
[9]
  T/C: 103 % of control
dose: 400.0 mg/kg/injection, schedule: Q04DX003 (ip), vehicle: saline
  T/C: 103 % of control

## CN(Cc1ccccc1)/C(N)=N/N
dose: 37.5 mg/kg/injection, schedule: Q04DX003 (ip), vehicle: saline
  T/C: 94 % of control
dose: 75.0 mg/kg/injection, schedule: Q04DX003 (ip), vehicle: saline
  T/C: 111 % of control
dose: 150.0 mg/kg/injection, schedule: Q04DX003 (ip), vehicle: saline
  T/C: 97 % of control

## Fc1ccc(/C=C2/c3cc(Cl)ccc3-c3c(Cl)cc(Cl)cc32)cc1
dose: 100.0 mg/kg/injection, schedule: Q01DX001 (ip), vehicle: Klucel (hydroxypropylcellulose) (HPC)
  T/C: 96 % of control
[10]
  T/C: 98 % of control
dose: 100.0 mg/kg/injection, schedule: Q04DX003 (ip), vehicle: Klucel (hydroxypropylcellulose) (HPC)
  T/C: 98 % of control
dose: 200.0 mg/kg/injection, schedule: Q01DX001 (ip), vehicle: Klucel (hydroxypropylcellulose) (HPC)
  T/C: 90 % of control
[11]
  T/C: 104 % of control
dose: 200.0 mg/kg/injection, schedule: Q04DX003 (ip), vehicle: Klucel (hydroxypropylcellulose) (HPC)
  T/C: 90 % of control
dose: 400.0 mg/kg/injection, schedule: Q01DX001 (ip), vehicle: Klucel (hydroxypropylcellulose) (HPC)
  T/C: 89 % of control
dose: 400.0 mg/kg/injection, schedule: Q01DX009 (ip), vehicle: Klucel (hydroxypropylcellulose) (HPC)
  T/C: 114 % of control
dose: 400.0 mg/kg/injection, schedule: Q04DX003 (ip), vehicle: Klucel (hydroxypropylcellulose) (HPC)
  T/C: 95 % of control

## CN(C)Cc1ccccc1COC(=O)/C=C/c1ccccc1
dose: 50.0 mg/kg/injection, schedule: Q04DX002 (ip), vehicle: Klucel (hydroxypropylcellulose) (HPC)
  T/C: 101 % of control
dose: 100.0 mg/kg/injection, schedule: Q04DX002 (ip), vehicle: Klucel (hydroxypropylcellulose) (HPC)
  T/C: 94 % of control
dose: 200.0 mg/kg/injection, schedule: Q04DX002 (ip), vehicle: Klucel (hydroxypropylcellulose) (HPC)
  T/C: 97 % of control

## O=C(O)C1C2C=CC(C2)C1(C(=O)O)c1ccccc1 (stereo not given)
[1]
  T/C: 95 % of control
dose: 100.0 mg/kg/injection, schedule: Q04DX003 (ip), vehicle: carboxymethylcellulose (CMC)
  T/C: 98 % of control
[2]
  T/C: 95 % of control
dose: 200.0 mg/kg/injection, schedule: Q04DX003 (ip), vehicle: carboxymethylcellulose (CMC)
  T/C: 92 % of control

## Nc1nc([Se]c2ccc([N+](=O)[O-])cc2)c2ncn(C3CC(O)C(CO)O3)c2n1 (stereo not given)
dose: 100.0 mg/kg/injection, schedule: Q01DX005 (ip), vehicle: saline
  T/C: 100 % of control
dose: 200.0 mg/kg/injection, schedule: Q01DX005 (ip), vehicle: saline
  T/C: 100 % of control

## COC(=O)C(CSCSC)NC(=O)NC1CCCCC1 (stereo not given)
[3]
  T/C: 91 % of control
[12]
  T/C: 102 % of control
[4]
  T/C: 91 % of control
[13]
  T/C: 89 % of control
[5]
  T/C: 91 % of control
[14]
  T/C: 91 % of control

## CCCCCCCCN1CCCNCC1
dose: 6.25 mg/kg/injection, schedule: Q01DX009 (ip), vehicle: saline
  T/C: 96 % of control
dose: 12.5 mg/kg/injection, schedule: Q01DX009 (ip), vehicle: saline
  T/C: 102 % of control
dose: 25.0 mg/kg/injection, schedule: Q01DX009 (ip), vehicle: saline
  T/C: 96 % of control
dose: 25.0 mg/kg/injection, schedule: Q04DX003 (ip), vehicle: saline
  T/C: 121 % of control
dose: 50.0 mg/kg/injection, schedule: Q04DX003 (ip), vehicle: saline
  T/C: 109 % of control
[7]
  T/C: 87 % of control

## Nc1ncnc2c1ncn2C1OC(COP(=O)(O)OP(=O)(O)OCC2OC([n+]3cccc(C=O)c3)C(O)C2O)C(O)C1O (stereo not given)
dose: 80.0 mg/kg/injection, schedule: Q01DX Z (ip), vehicle: saline
  T/C: 95 % of control
dose: 120.0 mg/kg/injection, schedule: Q01DX Z (ip), vehicle: saline
  T/C: 90 % of control
dose: 180.0 mg/kg/injection, schedule: Q01DX Z (ip), vehicle: saline
  T/C: 97 % of control
dose: 270.0 mg/kg/injection, schedule: Q01DX Z (ip), vehicle: saline
  T/C: 101 % of control

## CC(C)(C)CC(C)(C)N(CSc1ccc(Cl)cc1)CSc1ccc(Cl)cc1
[6]
  T/C: 100 % of control
[8]
  T/C: 93 % of control
[9]
  T/C: 87 % of control

## Nc1ccc(C(=O)CC(O)(C(F)(F)F)C(F)(F)F)cc1
dose: 25.0 mg/kg/injection, schedule: Q01DX009 (ip), vehicle: saline with Tween-80
  T/C: 92 % of control
dose: 50.0 mg/kg/injection, schedule: Q01DX009 (ip), vehicle: saline with Tween-80
  T/C: 94 % of control
[3]
  T/C: 100 % of control and 92 % of control
[4]
  T/C: 95 % of control

## CCCCCCCCCCCC(=O)O.[Cr]
dose: 100.0 mg/kg/injection, schedule: Q01DX009 (ip), vehicle: other
  T/C: 93 % of control
dose: 100.0 mg/kg/injection, schedule: Q04DX003 (ip), vehicle: other
  T/C: 97 % of control
dose: 200.0 mg/kg/injection, schedule: Q01DX009 (ip), vehicle: other
  T/C: 95 % of control
dose: 200.0 mg/kg/injection, schedule: Q04DX003 (ip), vehicle: other
  T/C: 102 % of control
dose: 400.0 mg/kg/injection, schedule: Q01DX009 (ip), vehicle: other
  T/C: 92 % of control
dose: 400.0 mg/kg/injection, schedule: Q04DX003 (ip), vehicle: other
  T/C: 91 % of control

## NCCc1cnc(N=Nc2ccc(S(=O)(=O)N(CCCl)CCCl)cc2)[nH]1
[12]
  T/C: 93 % of control
[13]
  T/C: 86 % of control
[14]
  T/C: 89 % of control

## O=C(CN1CC1)NCc1ccc(CNC(=O)CN2CC2)cc1
dose: 1.5 mg/kg/injection, schedule: Q01DX009 (ip), vehicle: carboxymethylcellulose (CMC)
  T/C: 111 % of control
dose: 6.0 mg/kg/injection, schedule: Q01DX009 (ip), vehicle: carboxymethylcellulose (CMC)
  T/C: 106 % of control
dose: 6.25 mg/kg/injection, schedule: Q01DX009 (ip), vehicle: carboxymethylcellulose (CMC)
  T/C: 118 % of control
dose: 7.3 mg/kg/injection, schedule: Q01DX001 (ip), vehicle: carboxymethylcellulose (CMC)
  T/C: 115 % of control
dose: 11.0 mg/kg/injection, schedule: Q01DX001 (ip), vehicle: carboxymethylcellulose (CMC)
  T/C: 121 % of control
dose: 11.1 mg/kg/injection, schedule: Q01DX009 (ip), vehicle: carboxymethylcellulose (CMC)
  T/C: 158 % of control
dose: 12.5 mg/kg/injection, schedule: Q01DX009 (ip), vehicle: carboxymethylcellulose (CMC)
  T/C: 183 % of control
dose: 16.6 mg/kg/injection, schedule: Q01DX009 (ip), vehicle: carboxymethylcellulose (CMC)
  T/C: 163 % of control
dose: 25.0 mg/kg/injection, schedule: Q01DX009 (ip), vehicle: carboxymethylcellulose (CMC)
  T/C: 153 % of control and 183 % of control
dose: 37.5 mg/kg/injection, schedule: Q01DX001 (ip), vehicle: carboxymethylcellulose (CMC)
  T/C: 155 % of control

## CCc1cc(C)cc(CC)c1N
[10]
  T/C: 104 % of control
[11]
  T/C: 90 % of control

## [Cl][Cd][Cl].c1ccc(N=P(c2ccccc2)(c2ccccc2)c2ccccc2)cc1
dose: 9.38 mg/kg/injection, schedule: Q01DX001 (ip), vehicle: other
  T/C: 105 % of control
